Test results taken from patent US4983632A, “Use of gamma-hydroxybutyric acid salts for preparing pharmaceutical compositions for use in the treatment of alcoholism, and the compositions obtained” (Laboratorio Farmaceutico C.T. S.r.l., priority 1988, dated 1991).
Structures can show the parent of a compound that is named as a salt.

How the values were obtained:
[1] = system: craving for ethyl alcohol in alcoholics; assay: Clinical study, craving for ethyl alcohol in alcoholics (overall); format: in vivo, man; conditions: overall clinical conclusion
From the text: To the end of demostrating the efficacy of the pharmaceutical compositions according to the invention we have furthermore carried out some […] tests to evaluate the efficacy of GHB salts in obtaining and mantaining abstention from alcoholic drinks in man; we synthetically report herein below the methods followed and the results obtained in one of such studies.
(§1) Finally, to the end of proving that the craving for drinks containing ethyl alcohol ("craving" for short) can be modified by pharmacological treatment with the compositions according to the present invention, we have selected 40 alcohol-dependent individuals according to the Diagnostic and Statistic Manual, 3rd edition Revised (DMS-III R) classification.
(§2) […] a NaGHB treatment at the doses of 0.05 g/kg/day in two administrations was given for an average period of 4-6 weeks.
(§3) In order to obtain a further experimental confirmation of the results obtained in the open test, we have carried out a test in double-blind.
(§4) 80 individuals, alcohol dependent according to DSM III-R, were divided in two groups by simple randomization and treated with NaGHB or with a placebo at the doses of 0.05 g/kg/day divided in two administrations for a total of 60 days.

alcohol-preferring rats [2] = assay: Voluntary consumption of ethanol in alcohol-preferring rats, NaGHB (Table 2); format: in vivo, male Wistar rats; conditions: for Ethanol consumption, treatment: three consecutive days
Procedure: The trial was carried out on male Wistar rats of initial weight 130-160 g. The alcohol-preferring rats were chosen from a heterogeneous rat population having an average age of 40 days. The animals were caged individually and kept in an environment at a temperature of 24° C., with light from 8.00 to 20.00 hous. The method used to select alcohol-preferring rats was to allow the animals to choose from two bottles, one containing water and the other containing an increasingly strong ethanol solution. The tapwater and the ethanol solution were administered from graduated bottles (Richter), their positon being changed irregularly to prevent the habit of drinking from the same bottle. Starting from a 3% ethanol solution, the concentration was increased by 1% every day to a maximum of 10%. This ethanol concentration was used for the whole trial period. The experiments were carried out only on rats by whom more than 60% of the liquid drunk had been 10% ethanol. The thus chosen rats imbibed a constant mean ethanol quantity of 3.2±0.4 g/rat/day. The weight of the animals during this period was 380±35 g, and therefore the consumption of absolute alcohol per rat per kg of body weight was 8±0.54 g.
Different randomly chosen groups of these animals were respectively treated with increasing doses of the sodium salt of gamma-hydroxy butyric acid (NaGHB) wheas the control group received the same volume of physiological solution (10 ml/kg). The quantity of ethanol and water imbibed was recorded before, during and after treatment at the same time each day, and the treatment was repeated for three consecutive days.
The results of this trial are given in Table 2 which compares ethanol consumption in g/kg before, during and after treatment with NaGHB at three different doses of 150, 300 and 450 mg/kg.

[3] = target: T1, alcohol dehydrogenase (ADH) (Rattus norvegicus, UniProt P06757); assay: ADH activity in supernatant of rat liver homogenate; format: biochemical; conditions: for ADH activity: mean±M.S.E. of three experiments
T1 construct: measured using the surnatant of rat liver homogenate; from tissue; host or cells: rat liver homogenate supernatant
T1 sequence (P06757 whole entry): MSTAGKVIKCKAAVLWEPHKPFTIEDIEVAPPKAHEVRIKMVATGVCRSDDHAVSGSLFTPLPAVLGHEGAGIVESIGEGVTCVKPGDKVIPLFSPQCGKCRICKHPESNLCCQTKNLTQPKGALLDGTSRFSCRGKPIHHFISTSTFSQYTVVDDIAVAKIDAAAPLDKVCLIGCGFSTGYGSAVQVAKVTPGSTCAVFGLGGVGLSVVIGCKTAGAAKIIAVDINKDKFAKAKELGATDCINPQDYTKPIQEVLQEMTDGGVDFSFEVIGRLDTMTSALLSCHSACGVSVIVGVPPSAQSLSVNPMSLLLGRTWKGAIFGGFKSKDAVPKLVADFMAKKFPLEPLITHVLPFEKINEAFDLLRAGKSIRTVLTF
Procedure: (§5) The ADH and ALDH activity were measured using the surnatant of rat liver homogenate. The ADH activity was measured by oxidising the ethanol to acetaldehyde in the presence of NAD in tubes containing NaGHB.
(§6) The formation of reduced nicotine-adenine dinucleotide (NADH) was determined by spectrometry measurement at 340 nm and the ALDH activity was determined in the same manner. In addition, pyrazole (0.03M) was added to the reaction mixture to inhibit ADH and propionaldehyde was added as substrate. Each value is the mean±M.S.E. of three experiments.

[4] = system: aldehyde dehydrogenase (ALDH); assay: ALDH activity in supernatant of rat liver homogenate; format: biochemical; conditions: for ALDH activity: pyrazole 0.03M, propionaldehyde substrate, mean±M.S.E. of three experiments
Procedure: as §5, §6

[5] = Acute toxicity for oral administration in the mouse; format: in vivo; conditions: in vivo; for mortality: read-out: Mortality (M+F)
mouse [6] = assay: as above; format: in vivo
[7] = Acute toxicity for intraperitoneal administration in the mouse; format: in vivo; conditions: in vivo, ip; for mortality: read-out: Mortality (M + F)
mouse [8] = assay: as above; format: in vivo
rat = assay: Chronic toxicity tests on the rat; format: in vivo
[9] = system: craving for drinks containing ethyl alcohol; assay: Craving in alcohol-dependent individuals, open test; format: in vivo, man
From the text: (§7) To this end we have prepared a questionnaire entitled "Restrained Drinking and Alcohol Craving Scale" (RDAGS) and we have examined whether said questionnaire was capable of differentiating between alcoholics and non-alcoholics.
as §1, §2
For comparison, a group of 40 alcoholics was examined, using the same criteria as for the NaGHB treatment groups; to this group a psychological and/or socio-rehabilitation technique was applied, with no specific pharmacological support (polyvitamins only).

[10] = system: craving for drinks containing ethyl alcohol; assay: Craving in alcohol-dependent individuals, double-blind test; format: in vivo, man
From the text: as §7, §3, §4

alcohol-preferring rats [11] = assay: Inhibition of voluntary ethanol consumption by alcohol-preferring rats, PTT-01 (Table 1); format: in vivo, rat; conditions: mean of 10 animals
From the text: Each value represents the mean of 10 aminals.

[12] = cited from earlier work
[13] = system: aldehyde-dehydrogenase enzyme; conditions: assumed competition with NAD on active sites; cited from earlier work
patients = conditions: cited from earlier work
[14] = 0.05 g/kg/day in two administrations, 60 days, vs placebo

SMILES: O=C(O)CCCO [GHB, gamma-hydroxybutyric acid]
- suppression of craving for ethyl alcohol in alcoholics [1]: surprising activity of GHB in suppressing the craving for ethyl alcohol in alcoholics

SMILES: O=C(O)CCCO [NaGHB, sodium salt of gamma-hydroxybutyric acid]
- Ethanol consumption, post-treatment (alcohol-preferring rats [2]; NaGHB 150 mg/kg): 7.02 ± 0.44 g/kg
- Ethanol consumption, pretreatment (alcohol-preferring rats [2]; NaGHB 150 mg/kg group): 7.71 ± 0.51 g/kg
- Ethanol consumption, treatment (alcohol-preferring rats [2]; NaGHB 150 mg/kg): 6.11 ± 0.21 g/kg
- Ethanol consumption, post-treatment (alcohol-preferring rats [2]; NaGHB 300 mg/kg): 5.88 ± 0.35 g/kg
- Ethanol consumption, pretreatment (alcohol-preferring rats [2]; NaGHB 300 mg/kg group): 7.48 ± 0.35 g/kg
- Ethanol consumption, treatment (alcohol-preferring rats [2]; NaGHB 300 mg/kg): 3.43 ± 0.23 g/kg
- Ethanol consumption, post-treatment (alcohol-preferring rats [2]; NaGHB 450 mg/kg): 5.10 ± 0.48 g/kg
- Ethanol consumption, pretreatment (alcohol-preferring rats [2]; NaGHB 450 mg/kg group): 7.82 ± 0.46 g/kg
- Ethanol consumption, treatment (alcohol-preferring rats [2]; NaGHB 450 mg/kg): 2.12 ± 0.11 g/kg
- consumption of ethyl alcohol relative to consumption before treatment (alcohol-preferring rats [2]; daily administration, 450 mg/kg): below 50%
- total imbibed fluid (alcohol-preferring rats [2]; during treatment): no significant reduction in total imbibed fluid
- Alcohol consumption and preference for alcohol after interrupting administration (alcohol-preferring rats [2]; five days after interruption): returned to their pre-treatment levels five days after interrupting the administration of the medicament
- ADH activity ([3]; 10^-3 molar): 0.0239 ± 0.0015 D.O/min/mg prot
- ADH activity ([3]; 10^-4 molar): 0.0240 ± 0.0018 D.O/min/mg prot
- ADH activity ([3]; 10^-5 molar): 0.0245 ± 0.0018 D.O/min/mg prot
- inhibition of alcohol dehydrogenase (ADH) ([3]; up to 10^-3 M): does not inhibit
- acetaldehyde metabolism [4]: without in any way altering acetaldehyde metabolism
- ALDH activity ([4]; 10^-3 molar): 0.0132 ± 0.0009 D.O/min/mg prot
- ALDH activity ([4]; 10^-4 molar): 0.0138 ± 0.0011 D.O/min/mg prot
- ALDH activity ([4]; 10^-5 molar): 0.0135 ± 0.0010 D.O/min/mg prot
- inhibition of aldehyde dehydrogenase (ALDH) ([4]; up to 10^-3 M): does not inhibit
- mortality ([5]; 10000 mg/kg, 10 g/kg): 0%
- mortality ([5]; 11000 mg/kg, 11 g/kg): 33.3%
- mortality ([5]; 13000 mg/kg, 13 g/kg): 66.6%
- mortality ([5]; 15000 mg/kg, 15 g/kg): 100%
- LD50 ([5]; Table 4, 95% CL 10.95-13.17): 12000 mg/kg
- LD50 (mouse [6]): 12014 mg/kg
- mortality ([7]; 2500 mg/kg, 2.5 g/kg): 0%
- mortality ([7]; 3000 mg/kg, 3 g/kg): 33.3%
- mortality ([7]; 3500 mg/kg, 3.5 g/kg): 66.7%
- mortality ([7]; 4000 mg/kg, 4 g/kg): 100%
- LD50 ([7]; Table 5, 95% CL 2.92-3.521): 3210 mg/kg
- LD50 (mouse [8]): 3210 mg/kg
- toxic action at organ level (rat): No toxic action at organ level was observed
- craving reduction ([9]; 0.05 g/kg/day in two administrations, 4-6 weeks): statistically highly significant craving reduction
- Craving decrease induced by NaGHB ([9]; 40 alcohol-dependents in open test (Table 6)): Efficient
- drop-out percentage [10, 14]: lower, statistically significant, drop-out percentage
- improvement of the craving [10, 14]: notable improvement of the craving
- Craving decrease induced by NaGHB ([10]; 40 alcohol dependents in double blind test (Table 6)): Efficient

SMILES: CCCCC(=O)NC1CCOC1=O (stereo not drawn) [PTT-01, α-n-butyl carbonylamino-gamma-butyro lactone]
- Ethanol consumption, pretreatment (alcohol-preferring rats [11]; PTT-01 100 mg/kg group): 7.21 ± 0.40 g/kg
- Ethanol consumption, post-treatment (alcohol-preferring rats [11]; PTT-01 100 mg/kg): 7.24 ± 0.44 g/kg
- Ethanol consumption, treatment (alcohol-preferring rats [11]; PTT-01 100 mg/kg): 7.03 ± 0.38 g/kg
- Ethanol consumption, pretreatment (alcohol-preferring rats [11]; PTT-01 200 mg/kg group): 7.70 ± 0.28 g/kg
- Ethanol consumption, post-treatment (alcohol-preferring rats [11]; PTT-01 200 mg/kg): 7.36 ± 0.51 g/kg
- Ethanol consumption, treatment (alcohol-preferring rats [11]; PTT-01 200 mg/kg): 7.51 ± 0.41 g/kg
- Ethanol consumption, pretreatment (alcohol-preferring rats [11]; PTT-01 300 mg/kg group): 7.08 ± 0.19 g/kg
- Ethanol consumption, post-treatment (alcohol-preferring rats [11]; PTT-01 300 mg/kg): 6.98 ± 0.15 g/kg
- Ethanol consumption, treatment (alcohol-preferring rats [11]; PTT-01 300 mg/kg): 7.00 ± 0.46 g/kg

SMILES: CCN(CC)C(=S)SSC(=S)N(CC)CC [disulfiram]
- acetaldehyde level in the blood, times greater than with alcohol alone ([12]; alcohol after disulfiram pretreatment vs same dose of alcohol only): 5-10 times
- acetaldehyde concentration ([12]; in the presence of disulfiram): acetaldehyde concentration increases
- acetaldehyde oxidation rate [13]: reducing the acetaldehyde oxidation rate
- toxicity when administered alone (patients; alone, therapeutic doses): not toxic, although not completely innocuous
- side effects (patients; disulfiram itself): can cause acneform eruptions, allergic dermatitis, urticaria, tiredness, fatique, tremors, reduced sexual power, gastric disturbances and digestive disturbances
- adverse reactions following disulfiram treatment (patients; following treatment, discussed with ingestion of alcohol): cases of respiratory depression, cardiovascular collapse, cardiac arrhythmia, myocardium infarct, and sudden or unexpected death have occurred
- refusal of alcoholic drinks (patients; patients treated): refuse alcoholic drinks
